Data: ChEMBL document CHEMBL1153590 (Bioorg Med Chem Lett, 2009)
Activity calls are given as the source filed them. No cut-off for these calls is given here.

Legend:
[1] = Ratio of compound ED50 to paclitaxel ED50 for inhibition of tubulin assembly
[2] = Effect on tubulin polymerization at 50 uM by cold-induced disassembly assay
A2780 [3] = test: Cytotoxicity against human A2780 cells after 4 days by sulforhodamine B assay; assay type: functional, cell-based; details: A2780, 96 h
PC-3 [4] = test: Ratio of compound IC50 to paclitaxel IC50 for cytotoxic activity against human PC3 cells; assay type: functional
[5] = Ratio of paclitaxel Kd to compound Kd for displacement of fluorescent N-AB-PT from tubulin
A2780 [6] = test: Ratio of compound IC50 to paclitaxel IC50 for cytotoxic activity against human A2780 cells; assay type: functional
PC-3 [7] = test: Cytotoxicity against human PC3 cells after 4 days by sulforhodamine B assay; assay type: functional, cell-based; details: PC-3, 96 h
[8] = Inhibition of tubulin assembly
[9] = Displacement of fluorescent N-AB-PT from tubulin by spectrofluorimetry
P388 = test: Ratio of docetaxel to compound in cytotoxic activity against mouse P388 cells; assay type: functional

Row | Compound | Ratio ED50 [1] | Activity [2] | IC50 (A2780 [3]) [nM] | Ratio IC50 (PC-3 [4]) | Ratio [5] | Ratio IC50 (A2780 [6]) | IC50 (PC-3 [7]) [nM] | ED50 [8] [µM] | Ka [9] [M⁻¹] | Ratio (P388)
1 | CC(=O)O[C@H]1C(=O)[C@@]2(C)[C@H]([C@H](OC(=O)c3ccccc3)[C@@]3(O)C[C@@H](OC(=O)[C@@H](O)[C@@H](NC(=O)c4ccccc4)c4ccccc4C)C(C)=C1C3(C)C)[C@@]1(OC(C)=O)CO[C@@H]1C[C@@H]2O (stereo in doubt) | 5.1 |  |  |  |  |  |  |  |  | 
2 | CC(=O)O[C@H]1C(=O)[C@@]2(C)[C@H]([C@H](OC(=O)c3ccccc3)[C@]3(O)C[C@H](OC(=O)[C@H](O)[C@H]4NC(=O)Oc5ccccc54)C(C)=C1C3(C)C)[C@]1(OC(C)=O)CO[C@@H]1C[C@@H]2O | 50 | inactive | > 20000 | 1900 | 150 | 1900 | > 5000 | > 25 |  | 
3 | COC(=O)N[C@@H](c1ccccc1)[C@@H](O)C(=O)O[C@H]1C[C@@]2(O)[C@@H](OC(=O)c3ccccc3)[C@@H]3[C@]4(OC(C)=O)CO[C@@H]4C[C@H](O)[C@@]3(C)C(=O)[C@H](OC(C)=O)C(=C1C)C2(C)C |  |  | 9 |  |  |  | 2 | 0.43 | 1.11e+07 | 150
4 | CC(=O)O[C@H]1C(=O)[C@@]2(C)[C@H]([C@H](OC(=O)c3ccccc3)[C@]3(O)C[C@H](OC(=O)[C@H](O)[C@@H](NC(=O)c4ccccc4)c4ccccc4)C(C)=C1C3(C)C)[C@]1(OC(C)=O)CO[C@@H]1C[C@@H]2O [PACLITAXEL] |  |  |  |  |  |  | 1.4 | 0.48 | 4.76e+07 | 
